Data reported in PMC8850458, “The AUTOTAC chemical biology platform for targeted protein degradation via the autophagy-lysosome system” (Nature Communications, 2022).
“And” between values parts separate entries of the source, which are not always exact repeats. Equal entries are not always repeated. Where two headings read alike, the source gives them in different places. Blank lines part the entries; values can stand above or below the molecule they belong to.

Legend:
Format in all cases: cell-based
Ub^+ and p62^+ puncta = assay: ICC of Ub (FK2) and p62 puncta in HeLa cells; conditions: Fig. 4g; for FK2 (Ub) / p62 colocalization, cells counted per 50 cells (individual replicates): listed as PBA
Description: Fig. 4 Targeted autophagic delivery and degradation of misfolded protein cargoes using AUTOTACs with aggregate-binding warhead. a A model illustrating the mode of action of aggregate-targeting AUTOTAC. b Chemical structures of PBA-1105, PBA-1106, Anle138b-F105 and PBA-1105b. c In vitro p62 oligomerization assay in HEK293T cells incubated with the indicated compounds in (b). d WB in HEK293T cells treated with MG132 (1 μM, 24 h), HCQ (10 μM, 24 h), PBA-1105, YTK-1105, and PBA (1 μM, 24 h). e Identical to (d), but with Anle-F105. f ICC of HeLa cells treated with HCQ (10 μM, 24 h), MG132 (2 μM, 18 h) or both in the presence of PBA-1106, YOK-1106 or PBA (1 μM, 24 h). Scale bar, 10 μm. g Quantification of (f) (n = 3, 50 cells). h ICC of HeLa cells treated with Anle138b-F105 (1 μM, 24 h). Scale bar, 10 μm. i Quantification of (h) (n = 3, 50 cells). When indicated, n = 3 biologically independent experiments each counting 50 cells. Data are presented as mean values ± SD where relevant. P-values (from a two-sided unpaired t test): ***P < 7.66E−05. Source data are provided with this paper.
Cells were cultured on coverslips coated with poly-L-lysine (Sigma) to observe cellular localization of proteins. Using 4% paraformaldehyde in PBS (pH 7.4), the cells were fixed for 15 min at room temperature and washed three times for 5 min with PBS. After fixing, the cells were permeabilized with 0.5% Triton X-100 in PBS solution for 15 min and washed three times with PBS for 5 min. The cells were blocked containing 2% BSA in PBS solution for 1 h at room temperature. Subsequently, the cells were incubated with primary antibody diluted in 2% BSA/PBS solution overnight at 4 °C, followed by washing the cells three times for 10 min with PBS and incubated with Alexa Fluor-conjugated secondary antibody diluted in 2% BSA/PBS for 30 min at room temperature. Using a DAPI-containing mounting medium (Vector Laboratories), the coverslips were mounted on glass slides. Confocal images were taken by laser scanning confocal microscope 510 Meta (Zeiss) and analyzed by Zeiss LSM Image Browser (ver. 4.2.0.121). […] Quantification results are shown as mean ± S.D. or S.E.M. of three independent experiments

[1] = biological target: tauP301L insoluble and soluble species (Homo sapiens, UniProt P10636, P618L); assay: Triton X-100-based insoluble/soluble fractionation; conditions: 2.5 μM 24 h, HCQ 10 μM
Description: SH-SY5Y-tau BiFC cells were treated with PBA-1105, PBA and YTK-1105 to determine the degraded fraction of Tau. Using a cell lysis buffer (20 mM HEPES pH 7.9, 0.2 M KCl, 1 mM MgCl2, 1 mM EGTA, 1% Triton X-100, 10% glycerol, protease inhibitor and phosphatase inhibitor), the cells were collected and incubated on ice for 15 min, followed by centrifugation at 13,000 g for 10 min at 4 °C. The supernatant was collected as the soluble fraction and the pellet as the insoluble fraction. Using PBS, the insoluble fraction was washed 4 times and lysed with a SDS-detergent lysis buffer (20 mM HEPES pH 7.9, 0.2 M KCl, 1 mM MgCl2, 1 mM EGTA, 1% Triton x-100, 1% SDS, 10% glycerol, protease inhibitors and phosphatase inhibitors). 5X Laemmli sample buffer was added to the soluble and insoluble samples and boiled for 10 min at 100 °C and loaded on a SDS-PAGE gel.

[2] = system: ERβ signaling (EGFR, p-ERK/ERK, p-Akt/Akt); assay: WB of ERβ downstream signaling in E2-stimulated LNCaP cells; conditions: levels of EGFR
Excerpt: To assess the therapeutic efficacy of autophagy-targeting degraders, we compared the downstream signaling of AR and ERβ in cells treated with either AUTOTACs or their cognate TBLs. Dihydrotestosterone (DHT) and estradiol (E2) are natural agonists that respectively bind AR and ERβ and induce their dimerization and nuclear translocation, resulting in transcriptional activation of downstream proteins[27],[28]. […] Next, we examined the potency of AUTOTACs in cancer cell growth and progression.
Adherent cells were washed with phosphate-buffered saline (PBS) and cell pellets were lysed in SDS-based sample buffer (277.8 mM Tris-HCI, pH 6.8, 4.4% LDS, 44.4% (v/v) glycerol) containing beta-mercaptoethanol. Alternatively, cell pellets or protein supernatants were lysed in 5X Laemmli sample buffer. Whole-cell lysates were separated using SDS-PAGE, and transferred onto polyvinyllidene difluoride membranes at 100 V for 2 h at 4 °C.

[3] = biological target: T1, estrogen receptor beta (ERβ) (Homo sapiens, UniProt Q92731); assay: Western blot degradation of ERβ; conditions: for ERβ band normalized to control, AVG % / ERβ band (PHTPP) normalized to GAPDH and to control, percentage: 293T; for ERβ band normalized to control, AVG % / ERβ band (PHTPP) normalized to GAPDH and to control, percentage / DC50: 24 h; for ERβ band (PHTPP) normalized to GAPDH and to control, percentage: single experiments
T1 construct: Targeted autophagic degradation of endogenous oncoproteins by AUTOTAC; endogenous in cells; host or cells: HEK293T, ACHN, MCF7
Description: Adherent cells were washed with phosphate-buffered saline (PBS) and cell pellets were lysed in SDS-based sample buffer (277.8 mM Tris-HCI, pH 6.8, 4.4% LDS, 44.4% (v/v) glycerol) containing beta-mercaptoethanol. Alternatively, cell pellets or protein supernatants were lysed in 5X Laemmli sample buffer. Whole-cell lysates were separated using SDS-PAGE, and transferred onto polyvinyllidene difluoride membranes at 100 V for 2 h at 4 °C. The membrane was incubated with a blocking solution consisting 4% skim milk in PBS solution for 30 min at room temperature and incubated with primary antibodies overnight, followed by incubation with host-specific HRP-conjugated secondary antibodies (1:10000 dilution). For signal detection, the membrane was developed with a mixture of ECL solution (Thermo Fisher Scientific) using X-ray films. Densitometry of developed bands was measured and analyzed with ImageJ (NIH, Bethesda).

T1 sequence (Q92731 whole entry): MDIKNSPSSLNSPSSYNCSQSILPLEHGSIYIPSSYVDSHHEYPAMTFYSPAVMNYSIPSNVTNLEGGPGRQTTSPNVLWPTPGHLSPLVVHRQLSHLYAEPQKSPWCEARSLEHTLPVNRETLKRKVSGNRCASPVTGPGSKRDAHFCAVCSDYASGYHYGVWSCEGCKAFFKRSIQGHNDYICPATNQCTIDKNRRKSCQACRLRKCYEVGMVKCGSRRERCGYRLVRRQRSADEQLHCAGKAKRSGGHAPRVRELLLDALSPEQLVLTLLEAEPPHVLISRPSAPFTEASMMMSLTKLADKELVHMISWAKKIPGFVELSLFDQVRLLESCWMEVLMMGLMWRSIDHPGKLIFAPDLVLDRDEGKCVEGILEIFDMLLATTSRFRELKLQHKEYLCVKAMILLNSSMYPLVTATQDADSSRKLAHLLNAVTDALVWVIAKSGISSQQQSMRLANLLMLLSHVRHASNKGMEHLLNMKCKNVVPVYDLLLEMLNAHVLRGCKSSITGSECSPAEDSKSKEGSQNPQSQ
Chain of tauP301L insoluble and soluble species (P10636 1-441 isoform P10636-8 P301L): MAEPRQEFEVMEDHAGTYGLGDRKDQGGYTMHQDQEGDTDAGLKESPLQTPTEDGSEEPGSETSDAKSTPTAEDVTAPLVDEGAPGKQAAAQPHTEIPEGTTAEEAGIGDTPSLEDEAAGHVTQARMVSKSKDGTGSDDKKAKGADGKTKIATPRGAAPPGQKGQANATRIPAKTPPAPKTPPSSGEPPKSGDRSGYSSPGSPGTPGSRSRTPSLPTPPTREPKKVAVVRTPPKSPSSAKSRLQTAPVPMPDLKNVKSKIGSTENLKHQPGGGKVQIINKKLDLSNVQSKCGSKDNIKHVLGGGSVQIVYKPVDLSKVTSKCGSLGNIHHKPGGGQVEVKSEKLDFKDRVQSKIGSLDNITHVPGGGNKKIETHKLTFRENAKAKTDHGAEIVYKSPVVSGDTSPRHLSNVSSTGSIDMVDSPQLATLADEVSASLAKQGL

Compound: O=C(O)CCCc1ccccc1 [4-PBA, 4-phenylbutyric acid]
FK2 (Ub) / p62 colocalization, AVG of cells per 50 cells (Ub^+ and p62^+ puncta; no co-treatment (con)): 6.333
FK2 (Ub) / p62 colocalization, percentage AVG (Ub^+ and p62^+ puncta; no co-treatment (con)): 12.6667 percentage
FK2 (Ub) / p62 colocalization, cells counted per 50 cells (individual replicates) (Ub^+ and p62^+ puncta; no co-treatment (con), count out of 50 cells): 7 and 9 and 3
FK2 (Ub) / p62 colocalization, AVG of cells per 50 cells (Ub^+ and p62^+ puncta; with HCQ): 19
FK2 (Ub) / p62 colocalization, percentage AVG (Ub^+ and p62^+ puncta; with HCQ): 38 percentage
FK2 (Ub) / p62 colocalization, cells counted per 50 cells (individual replicates) (Ub^+ and p62^+ puncta; with HCQ, count out of 50 cells): 25 and 15 and 17
FK2 (Ub) / p62 colocalization, AVG of cells per 50 cells (Ub^+ and p62^+ puncta; with MG132): 24
FK2 (Ub) / p62 colocalization, percentage AVG (Ub^+ and p62^+ puncta; with MG132): 48 percentage
FK2 (Ub) / p62 colocalization, AVG of cells per 50 cells (Ub^+ and p62^+ puncta; with MG132+HCQ): 35.3333
FK2 (Ub) / p62 colocalization, percentage AVG (Ub^+ and p62^+ puncta; with MG132+HCQ): 70.6667 percentage
FK2 (Ub) / p62 colocalization, cells counted per 50 cells (individual replicates) (Ub^+ and p62^+ puncta; with MG132+HCQ, count out of 50 cells): 32 and 39 and 35
FK2 (Ub) / p62 colocalization, cells counted per 50 cells (individual replicates) (Ub^+ and p62^+ puncta; with MG132, count out of 50 cells): 13 and 33 and 26

Compound: O=C(CCCc1ccccc1)NCCOCCOCCOCCNCc1ccc(OCc2ccccc2)c(OCc2ccccc2)c1 [PBA-1105]
autophagic degradation of detergent-soluble and -insoluble tauP301L [1]: promoted autophagic degradation of not only detergent-soluble but critically also -insoluble species

ERβ band normalized to control, AVG % ([3]; 1nM): 52.5102%
ERβ band (PHTPP) normalized to GAPDH and to control, percentage ([3]; 1nM): 58.6192% and 52.1272% and 46.7843%
ERβ band normalized to control, AVG % ([3]; 10nM): 17.5552%
ERβ band (PHTPP) normalized to GAPDH and to control, percentage ([3]; 10nM): 19.5411% and 16.0071% and 17.1174%
ERβ band normalized to control, AVG % ([3]; 100nM): 4.912%
ERβ band (PHTPP) normalized to GAPDH and to control, percentage ([3]; 100nM): 9.1943% and 5.039% and 0.5025%
ERβ band normalized to control, AVG % ([3]; 1uM): 9.556%
ERβ band normalized to control, AVG % ([3]; 2.5uM): 4.237%
ERβ band (PHTPP) normalized to GAPDH and to control, percentage ([3]; 2.5uM): 4.5765% and 5.279% and 2.856%
DC50 ([3]; ACHN renal carcinoma cells, read-out: DC50 of ERβ): < 100 nM
Dmax, 24 hr (concentration of maximal clearance at the 24 h mark) of ERβ ([3]; HEK293T cells): 10 to 100 nM
DC50 ([3]; HEK293T cells, read-out: DC50 (half-degrading concentration) of ERβ): ~2 nM and 1.48 nM
degradation of ERβ under RNA interference of either p62 or ATG5 ([3]; HEK293T, 0.1 μM 24 h, siRNA 40 nM 48 h): completely abolished
persistence of ERβ degradation post-washout ([3]; MCF7, MG132 1 μM, compound 500 nM 24 h, then washout): at least 8 h
DC50 and Dmax values of ERβ degradation ([3]; MCF7 cells, proteasomal inhibition (MG132 1 μM, 24 h)): subnanomolar
DC50 ([3]; MCF-7 breast cancer cells, read-out: DC50 of ERβ): < 100 nM
Compound: O[C@H](CNCCOCCOCCOc1ccc(-c2c(-c3ccccc3)nn3c(C(F)(F)F)cc(C(F)(F)F)nc23)cc1)COc1ccc(OCc2ccccc2)c(OCCCc2ccccc2)c1 [PHTPP-1304]
inhibition of ERβ signaling relative to its TBL [2]: 10 folds
